Test results as given in patent US12060349B2, “Glucosylceramide synthase inhibitors” (Genzyme Corporation, priority 2012, dated 2024).
Where two headings read alike, the source gives them in different places.

Columns and labels:
[1] = test system: GM3 expression on the cell surface, C32 human melanoma cells; experiment: cell based phenotypic assay, cell surface GM3 by antibody mediated immunofluorescence, C32 (GM3 C32 IC50); conditions: Homo sapiens, 50% inhibition of GM3 expression on the cell surface
Method in brief: (§1)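 Two melanoma lines, mouse B16 and human C32, were treated and surface GM3 quantified by antibody immunofluorescence for IC50. A parallel viability readout gives the concentration killing 50% of cells, with values over 10 indicating no cell death.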

[2] = test system: GM3 expression on the cell surface, B16 mouse melanoma cells; experiment: cell based phenotypic assay, cell surface GM3 by antibody mediated immunofluorescence, B16 (GM3 B16 IC50); conditions: Mus musculus, 50% inhibition of GM3 expression on the cell surface
Method in brief: as §1

[3] = biological target: T1, glucosylceramide synthase (Homo sapiens, UniProt Q16739); experiment: microsomal assay measuring conversion of ceramide to glucosylceramide by HPLC (GCS IC50); format: biochemical; conditions: concentration causing 50% inhibition of glucosylceramide synthase activity
T1 construct: Microsomes were isolated from A375 human melanoma cells; endogenous in cells; host or cells: A375 human melanoma cells (microsomal fraction, 100,000 g pellet)
T1 sequence (Q16739 1-394): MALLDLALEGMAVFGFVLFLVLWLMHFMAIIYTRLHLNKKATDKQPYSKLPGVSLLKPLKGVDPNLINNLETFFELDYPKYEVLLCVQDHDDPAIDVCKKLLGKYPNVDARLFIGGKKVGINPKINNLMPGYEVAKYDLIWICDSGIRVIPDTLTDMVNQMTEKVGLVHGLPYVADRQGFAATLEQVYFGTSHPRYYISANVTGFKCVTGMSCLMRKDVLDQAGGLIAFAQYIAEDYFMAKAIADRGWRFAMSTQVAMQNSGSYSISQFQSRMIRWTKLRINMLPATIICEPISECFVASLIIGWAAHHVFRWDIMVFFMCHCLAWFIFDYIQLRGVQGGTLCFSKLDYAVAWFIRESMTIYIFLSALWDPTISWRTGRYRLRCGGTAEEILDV
Method in brief: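 IC50 is the compound concentration halving glucosylceramide synthase activity. Activity was measured in microsomes, with HPLC quantifying glucosylceramide formed from ceramide.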

[4] = test system: B16 mouse melanoma cells; experiment: cell viability in the B16 cell-based assay (Viability, B16 IC50)
Method in brief: (§2)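 Cell death was scored within the cell-based GM3 experiment for each line. The viability value is the concentration producing 50% death, and numbers exceeding 10 signify no cytotoxicity.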

[5] = test system: C32 human melanoma cells; experiment: cell viability in the C32 cell-based assay (Viability, C32 IC50); conditions: concentration causing 50% cell death, values greater than 10 represent a lack of cell death
Method in brief: as §2

[6] = C32 human melanoma cells, read-out: GM3 C32 IC50
[7] = B16 mouse melanoma cells, read-out: GM3 B16 IC50
[8] = Mus musculus, B16, B16 cells, concentration causing 50% cell death, values greater than 10 represent a lack of cell death, read-out: Viability, B16 IC50
[9] = Homo sapiens, C32, C32 cells, read-out: Viability, C32 IC50
[10] = read-out: GM3 C32 IC50, C32 human melanoma cells
[11] = read-out: GM3 B16 IC50, B16 mouse melanoma cells
[12] = Mus musculus, B16, read-out: Viability, B16 IC50
[13] = Homo sapiens, C32, read-out: Viability, C32 IC50, C32 cells

SMILES | IC50 [1, 6] | IC50 [2, 7] | IC50 [3] | IC50 [4, 8] | IC50 [5, 9] | IC50 [1, 10] | IC50 [2, 11] | IC50 ([4]; read-out: Viability, B16 IC50, B16 cells, concentration causing 50% cell death, values greater than 10 represent a lack of cell death) | IC50 ([5]; read-out: Viability, C32 IC50, C32 cells) | IC50 [4, 12] | IC50 [5, 13]
CCCC1(NC(=O)NC(C)(C)c2ccc(-c3ccc(CCO)cc3)cc2)CN2CCC1CC2 (centres unmarked) [Example 224, 1-(2-(4′-(2-Hydroxyethyl)-[1,1′-biphenyl]-4-yl)propan-2-yl)-3-(3-propylquinuclidin-3-yl)urea] | 0.0016 µM | 0.0643 µM | 0.0202 µM | ≥ 10 µM | ≥ 10 µM | – | – | – | – | – | –
CCC1(NC(=O)NC(C)(C)c2ccc(-c3ccc(CCO)cc3)cc2)CN2CCC1CC2 (centres unmarked) [Example 225, 1-(3-Ethylquinuclidin-3-yl)-3-(2-(4′-(2-hydroxyethyl)-[1,1′-biphenyl]-4-yl)propan-2-yl)urea] | 0.00192 µM | 0.229 µM | 0.0294 µM | ≥ 10 µM | ≥ 10 µM | – | – | – | – | – | –
CC(C)(NC(=O)OC1CN2CCC1CC2)c1ccc(-c2ccc(CCO)cc2)cc1 (centres unmarked) [Example 226, Quinuclidin-3-yl (2-(4′-(2-hydroxyethyl)-[1,1′-biphenyl]-4-yl)propan-2-yl)carbamate] | – | – | 0.148 µM | – | – | 0.0223 µM | 0.656 µM | ≥ 10 µM | ≥ 10 µM | – | –
CC(C)(NC(=O)OC1CN2CCC1CC2)c1ccc(-c2ccc(CCc3c[nH]nn3)cc2)cc1 (centres unmarked) [Example 227, Quinuclidin-3-yl (2-(4′-(2-(1H-1,2,3-triazol-4-yl)ethyl)-[1,1′-biphenyl]-4-yl)propan-2-yl)carbamate] | – | – | 0.027 µM | – | – | 0.0104 µM | 0.122 µM | – | – | ≥ 10 µM | 1 µM
CC(C)(NC(=O)OC1CCN2CCC1CC2)c1ccc(-c2ccc(CCc3c[nH]nn3)cc2)cc1 (centres unmarked) [Example 228, 1-Azabicyclo[3.2.2]nonan-4-yl (2-(4′-(2-(1H-1,2,3-triazol-4-yl)ethyl)-[1,1′-biphenyl]-4-yl)propan-2-yl)carbamate] | 0.00608 µM | 0.0808 µM | 0.0182 µM | 7.65 µM | 3.16 µM | – | – | – | – | – | –
CC(C)(NC(=O)OC1CN2CCC1CC2)c1ccc(-c2ccc(CN3CCOCC3)cc2)cc1 (centres unmarked) [Example 229, Quinuclidin-3-yl (2-(4′-(morpholinomethyl)-[1,1′-biphenyl]-4-yl)propan-2-yl)carbamate] | – | – | 0.158 µM | – | – | 0.0532 µM | 0.524 µM | – | – | ≥ 10 µM | ≥ 10 µM
CC(C)(NC(=O)N1CCN2CCC1CC2)c1ccc(-c2ccc(CN3CCOCC3)cc2)cc1 [Example 230, N-(2-(4′-(Morpholinomethyl)-[1,1′-biphenyl]-4-yl)propan-2-yl)-1,4-diazabicyclo[3.2.2]nonane-4-carboxamide] | 0.417 µM | 1.79 µM | 2.28 µM | ≥ 10 µM | ≥ 10 µM | – | – | – | – | – | –
CC(C)(NC(=O)OC1CN2CCC1CC2)c1ccc(-c2ccc(N3CCOCC3)cc2)cc1 (centres unmarked) [Example 231, Quinuclidin-3-yl (2-(4′-morpholino-[1,1′-biphenyl]-4-yl)propan-2-yl)carbamate] | – | – | 0.071 µM | – | – | 0.015 µM | 0.23 µM | – | – | 2 µM | 2 µM
CC(C)(NC(=O)NC1(C)CN2CCC1CC2)c1ccc(-c2ccc(N3CCOCC3)cc2)cc1 (centres unmarked) [Example 232, 1-(3-Methylquinuclidin-3-yl)-3-(2-(4′-morpholino-[1,1′-biphenyl]-4-yl)propan-2-yl)urea] | 0.00717 µM | 0.0642 µM | 0.0309 µM | 1 µM | 1 µM | – | – | – | – | – | –
CC(C)(NC(=O)NC1(C)CCN2CCC1CC2)c1ccc(-c2ccc(N3CCOCC3)cc2)cc1 (centres unmarked) [Example 233, 1-(4-Methyl-1-azabicyclo[3.2.2]nonan-4-yl)-3-(2-(4′-morpholino-[1,1′-biphenyl]-4-yl)propan-2-yl)urea] | 0.000726 µM | 0.00551 µM | 0.00568 µM | 1 µM | 1 µM | – | – | – | – | – | –
